Laboratory results as given in patent US12441708B2, “Cereblon ligands and bifunctional compounds comprising the same” (Arvinas Operations, Inc., priority 2017, dated 2025).

Experiments:
Format in all cases: cell-based
[1] = tested on: estrogen receptor; assay: ERE luciferase assay in T47D-KBluc cells; settings: Homo sapiens, 24 hours, read-out: ER Target Engagement IC50
Method: 1. ERE Luciferase Assay for Compounds in Table 2
T47D-1(Bluc cells (ATCC® ECRL 2 65, T47D human breast cancer cells stably transfected with estrogen responsive element/promoter/luciferase reporter gene) were seeded into 96-well white opaque plates in IR: PM growth medium supplemented with 10% fetal bovine serum (FBS) and allowed to adhere overnight in a 37° C. humidified incubator. The following day, cells were treated with PROTACs in a 12-point concentration curve (top final concentration of 300 nM with subsequent concentrations being 3-fold less with […] being the lowest concentration in the assay). Each PROTAC was tested independently in two experiments on 96-well plates. After 24 hours, media was removed and lysis buffer was added to the wells. Following lysis, Bright-Glo™ Luciferase Assay Substrate (Promega, Madison WI) was added and the luciferase activity was measured using a Cytation 3 plate reader (BioTek™, Winooski, VT). Each compound was assayed in duplicate and the activity was calculated as […] using GraphPad Prism software (San Diego, CA).

[2] = target: T1, estrogen receptor-alpha (ERα) (Homo sapiens (Human), UniProt P03372); assay: Estrogen receptor-alpha (ERα) degradation assay in T47D cells; settings: % degraded, 5 day incubation, read-out: ER Degradation Dmax
T1 sequence (P03372 whole entry): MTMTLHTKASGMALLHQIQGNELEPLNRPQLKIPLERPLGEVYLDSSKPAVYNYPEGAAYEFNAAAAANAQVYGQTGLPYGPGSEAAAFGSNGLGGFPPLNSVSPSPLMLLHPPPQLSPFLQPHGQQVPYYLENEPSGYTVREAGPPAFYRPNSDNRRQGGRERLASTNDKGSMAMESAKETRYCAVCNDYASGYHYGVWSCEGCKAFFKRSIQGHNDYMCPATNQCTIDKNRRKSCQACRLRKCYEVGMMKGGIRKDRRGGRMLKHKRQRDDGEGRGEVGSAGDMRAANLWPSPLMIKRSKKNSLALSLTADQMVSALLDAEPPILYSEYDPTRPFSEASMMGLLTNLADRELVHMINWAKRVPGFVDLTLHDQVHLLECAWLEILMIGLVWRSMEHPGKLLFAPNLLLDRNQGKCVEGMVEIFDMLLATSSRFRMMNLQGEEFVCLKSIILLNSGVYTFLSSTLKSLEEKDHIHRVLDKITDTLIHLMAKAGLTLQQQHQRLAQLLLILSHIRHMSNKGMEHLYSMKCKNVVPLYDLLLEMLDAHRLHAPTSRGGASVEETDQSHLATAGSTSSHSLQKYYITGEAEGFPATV

[3] = tested on: c-Myc; assay: BRD4 human c-Myc ELISA assay in 22RV-1 cells; settings: 22Rv1, 18 hours
Method: 6. BRD4 Human c-Myc ELISA Assay Protocol
22RV-1 cells were seeded at 30,000 cells/well at a volume of 75 μL/well in RPMI with 10% FBS media in 96-well plates and grown overnight at 37° C. Cells were dosed with compounds at 4× concentration diluted in 0.4% DMSO; compounds were serially diluted 1:3 for 8-point dose curve. Twenty-five (25) ul of the compounds was added to cells for a final concentration starting at 300 nM-0.3 nM or 1 uM-1 nM in 0.1% DMSO and incubated for 18 hours. Media was aspirated, cells were washed 1× with PBS and aspirated. Cells were lysed in 50 ul RIPA buffer (50 mM Tris pH8, 150 mM NaCl, 1% Tx-100, 0.1% SDS, 0.5% sodium deoxycholate) supplemented with protease and phosphatase inhibitors. Plates were incubated on ice for 15 minutes then centrifuged at 4° C. for 10 minutes at 4000 rpm. Fifty (50) ul of cleared lysate from a 96-well assay plate was added into 96-well c-myc ELISA plate (Novex, Life Technologies Catalog #KH02041). c-myc standard was reconstituted with standard diluent buffer; standard curve range of 333 pg/ml-0 pg/ml was prepared, diluted 1:2 for 8-point dose curve. The rest of the assay was performed following the protocol from the c-myc ELISA kit. Data was analyzed and plotted using GraphPad Prism software.

[4] = target: T1, estrogen receptor-alpha (ERα); assay: Estrogen receptor-alpha (ERα) degradation assay in MCF7 cells (In-Cell Western / western blot); settings: % degraded, read-out: ER Degradation Dmax
Method: 2. Estrogen Receptor-Alpha (ERα) Degradation Assay in MCF-7 Cells Using Western Blot Method for Table 5
The exemplary novel ERα degraders were assessed for their activity in degrading ERα in MCF-7 cells via western blot. The assay was carried out in the presence of 10% FBS or high percentage of human or mouse serum. Protocols of the western blot assay are described below.
MCF7 cells were grown in DMEM/F12 with 10% FBS and seeded at 24,000 cells per well in 100 μl into 96-well clear tissue culture plates. The following day, the cells were treated with PROTACs in a […] concentration curve with 100 nM being the top concentration and serial dilutions to make the other concentrations (30 nM, 10 nM. 3 nM, 1 nM, and 0.3 nM). At all concentrations, 0.01% DMSO is the final concentration in the well. The following day, the plates are aspirated, washed with 50 μl of cold PBS. The cells are lysed with 50 μl/well 4° C. Cell Lysis Buffer (Catalog #9803; Cell Signaling Technology, Danvers, MA) (20 mM Tris-HCL (pH 7.5), 150 mM NaCl, 1 mM Na2EDTA, 1 mM EGTA, 1% Triton, 2.5 mM sodium pyrophosphate, 1 mM B-glycerophosphate, 1 mM sodium vanadate, 1 μg/ml leupeptin). Lysates were clarified at 16,000× g for 10 minutes, and 2 μg of protein was subjected to SDS-PAGE analysis and followed by immunoblotting according to standard protocols. The antibodies used were ERα (Cell Signaling, Technologies Catalog #8644), and Tubulin (Sigma Catalog #T9026; St. Louis, MO). Detection reagents were Clarity Western ECL substrate (Bio-Rad Catalog 4170-5060; Hercules, CA).
Alternatively, MCF7 cells were grown in DMEM/F12 with 10% FBS and seeded at 24,000 cells per well in 500 μl in 24-well clear tissue culture plates. The following day, the cells were treated with PROTACs in a 5-point concentration curve (100 nM, 33 nM, 11 nM, 3.7 nM, and 1.2 nM) in the presence of 0.01% DMSO. After 72 hours, the wells are aspirated and washed with 500 μl of PBS. The cells are lysed with 100 μl/well 4° C. Cell Lysis Buffer (Catalog #9803; Cell Signaling Technology, Danvers, MA) (20 mM Tris-HCL (pH 7.5), 150 mM NaCl, 1 mM Na2EDTA, 1 mM EGTA, 1% Triton, 2.5 mM sodium pyrophosphate, 1 mM B-glycerophosphate, 1 mM sodium vanadate, 1 ug/ml leupeptin). Lysates were clarified at 16,000× g for 10 minutes, and 2 μg of protein was subjected to SDS-PAGE analysis and followed by immunoblotting according to standard protocols. The antibodies used were ERα (Cell Signaling Technologies Catalog #8644), and Tubulin (Sigma Catalog #T9026; St. Louis, MO). Detection reagents were Clarity Western ECL substrate (Bio-Rad Catalog 4170-5060; Hercules, CA).
3. Estrogen receptor-alpha (ERα) degradation assay using In-Cell Western™ Assay for Table 5
Degradation of ERα by claimed compounds were determined in MCF7 cells using an In-Cell Western™ assay. Briefly, MCF7 cells were plated in 96-well plates (2000 cells per well in 100 μl media) and incubated at 37° C. under an atmosphere of 5% CO2 in a humidified incubator overnight. One-hundred (100) μl of media containing test compound (at 2× concentration) was added to the appropriate wells to provide 11 serially decreasing concentrations (top final concentration, 1 μM then 3-fold less for the next 10 concentrations); a vehicle control (DMSO) was also added for each compound. For each experiment, all compounds were assayed in duplicate plates. Cells were then incubated for 3 or 5 days in the above-mentioned environment. The assay was terminated by removal of media, a single wash with ice-cold PBS and the addition of […] paraformaldehyde (PFA: 4% in PBS). After 15 minutes in PFA at room temperature, the cells were permeabilized in Tris-phosphate-buffered saline with Tween (0.1%) (TBST) supplemented with Triton X-100 (0.5%) for 15 minutes. Cells were then blocked in BSA (TBST with BSA, 3%) for one hour. […] The cells were incubated overnight at 4° C. […]

| IC50 [1] [nM] | Dmax [2] [%] | IC50 [3] [nM] | Dmax ([4]; 3 day incubation) [%] | Dmax ([4]; 5 day incubation) [%] | SMILES |
| --- | --- | --- | --- | --- | --- |
| < 1 | ≤ 50 |  |  |  | O=C1CCC(N2CC(Oc3cccc(C4CCN(CCCOc5ccc([C@@H]6c7ccc(O)cc7CC[C@@H]6c6ccccc6)cc5)CC4)c3)=CC2=O)C(=O)N1 (stereo partly drawn) [PROTAC-106, 3-(4-(3-(1-(3-(4-((1R,2 S)-6-hydroxy-2-phenyl-1,2,3,4-tetrahydronaphthalen-1-yl)phenoxy)propyl)piperidin-4-yl)phenoxy)-2-oxo-2,5-dihydro-1H-pyrrol-1-yl)piperidine-2,6-dione] |
| 1 to 10 | ≤ 50 |  |  |  | O=C1CCC(N2CC(Oc3cccc(C4CCN(CCCOc5ccc([C@H]6c7ccc(O)cc7CC[C@H]6c6ccccc6)cc5)CC4)c3)=CC2=O)C(=O)N1 (mixture of isomers) [PROTAC-105, rac-3-(4-(3-(1-(3-(4-((1R,2S)-6-hydroxy-2-phenyl-1,2,3,4-tetrahydronaphthalen-1-yl)phenoxy)propyl)piperidin-4-yl)phenoxy)-2-oxo-2,5-dihydro-1H-pyrrol-1-yl)piperidine-2,6-dione] |
|  | ≤ 50 |  |  |  | CCN(C(=O)c1ccc(N2CCN(CCCCCOc3ccc([C@@H]4c5ccc(O)cc5CC[C@@H]4c4ccccc4)cc3)CC2)cc1OC)C1CCC(=O)NC1=O (mixture of isomers) [PROTAC-92, rac-N-(2,6-dioxopiperidin-3-yl)-N-ethyl-4-(4-(5-(4-((1R,2S)-6-hydroxy-2-phenyl-1,2,3,4-tetrahydronaphthalen-1-yl)phenoxy)pentyl)piperazin-1-yl)-2-methoxybenzamide] |
|  |  | ≥ 100 |  |  | Cc1sc2c(c1C)C(c1ccc(Cl)cc1)=NC(CC(=O)NCCCOCCCOc1ccc3ncc(-n4ccc(=O)[nH]c4=O)cc3c1)c1nnc(C)n1-2 (centres unmarked) [PROTAC-1, 2-(4-(4-chlorophenyl)-2,3,9-trimethyl-6H-thieno[3,2-f] [1,2,4]triazolo[4,3-a][1,4]diazepin-6-yl)-N-(3-(3-((3-(2,4-dioxo-3,4-dihydropyrimidin-1(2H)-yl)quinolin-6-yl)oxy)propoxy)propyl)acetamide] |
| 1 to 10 | ≤ 50 |  |  |  | O=C1CCC(N2CC(Oc3cccc(C4CCN(CCCCOc5ccc([C@@H]6c7ccc(O)cc7CC[C@@H]6c6ccccc6)cc5)CC4)c3)=CC2=O)C(=O)N1 (mixture of isomers) [PROTAC-104, rac-3-(4-(3-(1-(4-(4-((1R,2S)-6-hydroxy-2-phenyl-1,2,3,4-tetrahydronaphthalen-1-yl)phenoxy)butyl)piperidin-4-yl)phenoxy)-2-oxo-2,5-dihydro-1H-pyrrol-1-yl)piperidine-2,6-dione] |
| < 1 |  |  | ≤ 50 |  | O=C1CCC(n2ncc(Oc3ccc(O[C@H]4CCN(CCOc5ccc([C@@H]6c7ccc(O)cc7CC[C@@H]6c6ccc(F)cc6)cc5)C4)nc3)cc2=O)C(=O)N1 (mixture of isomers) [PROTAC-94, rac-3-(4-((6-(((R)-1-(2-(4-((1S,2R)-2-(4-fluorophenyl)-6-hydroxy-1,2,3,4-tetrahydronaphthalen-1-yl)phenoxy)ethyl)pyrrolidin-3-yl)oxy)pyridin-3-yl)oxy)-6-oxopyridazin-1(6H)-yl)piperidine-2,6-dione] |
| 1 to 10 |  |  |  | > 75 | CN(C(=O)c1ccc(N2CCN(CCCCCOc3ccc([C@@H]4c5ccc(O)cc5CC[C@@H]4c4ccccc4)cc3)CC2)cc1)C1CCC(=O)NC1=O (mixture of isomers) [PROTAC-90, rac-N-(2,6-dioxopiperidin-3-yl)-4-(4-(5-(4-((1R,2S)-6-hydroxy-2-phenyl-1,2,3,4-tetrahydronaphthalen-1-yl)phenoxy)pentyl)piperazin-1-yl)-N-methylbenzamide] |
| ≥ 100 | ≤ 50 |  |  |  | O=C1CCC(N2CC(Oc3cccc(C4CCN(CCCCOc5ccc([C@H]6c7ccc(O)cc7CC[C@H]6c6ccccc6)cc5)CC4)c3)=CC2=O)C(=O)N1 (mixture of isomers) [PROTAC-109, rac-3-(4-(3-(1-(4-(4-((1R,2S)-6-hydroxy-2-phenyl-1,2,3,4-tetrahydronaphthalen-1-yl)phenoxy)butyl)piperidin-4-yl)phenoxy)-2-oxo-2,5-dihydro-1H-pyrrol-1-yl)piperidine-2,6-dione] |
| 1 to 10 |  |  |  | > 75 | O=C1CCC(N2CC(c3ccc(N4CCN(CC5CCN(c6ccc([C@@H]7c8ccc(O)cc8CC[C@@H]7c7ccccc7)cc6)CC5)CC4)cc3)=CC2=O)C(=O)N1 (stereo partly drawn) [PROTAC-89, 3-[3-[4-[4-[[1-[4-[(1R,2S)-6-hydroxy-2-phenyl-tetralin-1-yl]phenyl]-4-piperidyl]methyl]piperazin-1-yl]phenyl]-5-oxo-2H-pyrrol-1-yl]piperidine-2,6-dione] |
| 10 to 100 |  |  | ≤ 50 |  | Cc1nc2c(NCCN3CCN(CCOc4ccc(Oc5c(-c6ccc(Br)cc6)sc6cc(O)ccc56)cc4)CC3)cccc2c(=O)n1C1CCC(=O)NC1=O (centres unmarked) [PROTAC-107] |
| < 1 |  |  | ≤ 50 |  | O=C1CCC(n2ncc(Oc3ccc(O[C@@H]4CCN(CCOc5ccc([C@@H]6c7ccc(O)cc7CC[C@@H]6c6ccc(F)cc6)cc5)C4)nc3)cc2=O)C(=O)N1 (stereo partly drawn) [PROTAC-103, 3-(4-((6-(((R)-1-(2-(4-((1R,2S)-2-(4-fluorophenyl)-6-hydroxy-1,2,3,4-tetrahydronaphthalen-1-yl)phenoxy)ethyl)pyrrolidin-3-yl)oxy)pyridin-3-yl)oxy)-6-oxopyridazin-1(6H)-yl)piperidine-2,6-dione] |
